Patent US10519098B2, “Aromatic derivatives as anti-malarial” (Council of Scientific & Industrial Research, priority 2014, dated 2019)
Where two headings read alike, the source gives them in different places.

Experiments:
[1] = system: Chloroquine-sensitive (3D7) strain of P. falciparum; assay: Malaria SYBR Green I-based fluorescence (MSF) assay, 3D7 strain; format: cell-based; conditions: Plasmodium falciparum
Method: (§1) The stock (5 mg/mL or 10 mM) solutions of extracts were prepared in DMSO and required dilutions were made in culture medium.
(§2) Two-fold serial dilutions of test samples were made in 96 well plates and incubated with 1.0% parasitized cell suspension containing 0.8% parasitaemia (Asynchronous culture with more than 80% ring stages). The plates were incubated at 37° C. in CO2 incubator in an atmosphere of 5% CO2 and air mixture. 72 hours later 100 μL of lysis buffer containing 2× concentration of SYBR Green-I (Invitrogen) was added to each well and incubated for one hour at 37° C. The plates were examined at 485±20 nm of excitation and 530±20 nm of emission for relative fluorescence units (RFUs) per well using the fluorescence plate reader (FLX800, BIOTEK). IC50 values were obtained by Logit regression analysis of dose response curves (Singh et al. 2011).

[2] = system: Chloroquine-resistant (K1) strain of P. falciparum; assay: Malaria SYBR Green I-based fluorescence (MSF) assay, K1 strain; format: cell-based; conditions: Plasmodium falciparum
Method: as §1, §2

[3] = in vitro; conditions: monkey
Method: (§3) The cells were incubated with test sample dilutions for 72 h and MTT was used as reagent for detection of cytotoxicity. Podophyllotoxin (SIGMA) was used as the standard reference drug.

[4] = system: Vero cell line (C1008; Monkey kidney fibroblast); assay: in vitro; conditions: 72 h
Method: as §3

[5] = P. falciparum 3D7, 72 hours incubation, read-out: IC50 against 3D7
[6] = P. falciparum K1, 72 hours incubation, read-out: IC50 against K1
[7] = 3D7, range given for listed compounds, read-out: IC50 values against 3D7 culture
[8] = K1, range given for listed compounds, read-out: IC50 values against K1 culture

## O=C(/C=C/c1ccccc1)NC[C@@H](OC(=O)/C=C/c1ccccc1)c1ccc2c(c1)OCO2 [Compound 33, (S)-1-(benzo[d][1,3]dioxol-5-yl)-2-cinnamamidoethyl cinnamate]
[1]; [5]
  IC50: > 5 µM
[2]; [6]
  IC50: > 5 µM
[3]
  CC50 at 72 h: 190 µM
other
  melting point: 186 to 190 °C

## COc1ccc([C@@H](CNC(=O)CCc2ccccc2)OC(=O)CCc2ccccc2)cc1OC [Compound 43, (S)-1-(3,4-dimethoxyphenyl)-2-(3-phenylpropanamido)ethyl 3-phenyl propanoate]
[1]; [5]
  IC50: 2.86 µM
[2]; [6]
  IC50: > 10 µM
[3]
  CC50 at 72 h: 39.3 µM
other
  melting point: 82 to 84 °C

## O=C(/C=C/c1ccccc1)NC[C@@H](OC(=O)/C=C/c1ccccc1)c1ccccc1 [Compound 25, (S)-2-cinnamamido-1-phenylethyl cinnamate]
[1]; [5]
  IC50: 3.85 µM
[2]; [6]
  IC50: > 10 µM
[3]
  CC50 at 72 h: 31.7 µM
other
  melting point: 181 to 183 °C

## COc1cccc([C@H](CNC(=O)/C=C/c2ccccc2)OC(=O)/C=C/c2ccccc2)c1OC [Compound 22, (R)-2-cinnamamido-1-(2,3-dimethoxyphenyl)ethyl cinnamate]
[1]; [5]
  IC50: > 5 µM
[2]; [6]
  IC50: > 5 µM
[3]
  CC50 at 72 h: 194 µM
other
  melting point: 105 to 107 °C

## COc1ccc([C@@H](CNC(=O)/C=C/c2ccccc2)OC(=O)CCc2ccccc2)cc1OC [Compound 49, (S)-2-cinnamamido-1-(3,4-dimethoxyphenyl)ethyl 3-phenylpropanoate]
[1]; [5]
  IC50: > 10 µM
[2]; [6]
  IC50: > 10 µM
[4]
  CC50: 36.9 µM
other
  melting point: 101 to 103 °C

## O=C(/C=C/c1ccccc1)OC[C@H](OC(=O)/C=C/c1ccccc1)c1ccc2ccccc2c1 [Compound 54, (R)-1-(naphthalen-2-yl)ethane-1,2-diyl (2E,2′E)-bis (3-phenylacrylate)]
[1]; [5]
  IC50: > 10 µM
[2]; [6]
  IC50: 2.15 µM
[4]
  CC50: 181 µM
other
  melting point: 123 to 124 °C

## COc1ccc([C@@H](CNC(=O)/C=C/c2ccc(O[Si](C)(C)C(C)(C)C)cc2)OC(=O)/C=C/c2ccc(O[Si](C)(C)C(C)(C)C)cc2)cc1OC [Compound 48, (S)-2-((E)-3-(4-((tert-butyldimethylsilyl)oxy)phenyl)acrylamido)-1-(3,4-dimethoxyphenyl)ethyl (E)-3-(4-((tert-butyldimethylsilyl)oxy)phenyl)acrylate]
[1]; [5]
  IC50: 7.92 µM
[2]; [6]
  IC50: 3.37 µM
[3]
  CC50 at 72 h: 40.8 µM
other
  melting point: 63 to 65 °C

## COc1ccc([C@@H](CNC(=O)CCc2ccccc2)OC(=O)/C=C/c2ccccc2)cc1OC [Compound 50, (S)-1-(3,4-dimethoxyphenyl)-2-(3-phenylpropanamido)ethylcinnamate]
[1]; [5]
  IC50: > 10 µM
[2]; [6]
  IC50: > 10 µM
[4]
  CC50: 44.3 µM
other
  melting point: 112 to 114 °C

## COc1cc(/C=C/C(=O)OC[C@@H](OC(=O)/C=C/c2cc(OC)c(OC)c(OC)c2)c2cc(OC)c(OC)c(OC)c2)cc(OC)c1OC [Compound 57, (S)-1-(3,4,5-trimethoxyphenyl)ethane-1,2-diyl(2E,2′E)-bis(3-(3,4,5-trimethoxyphenyl)acrylate)]
[1]; [7]
  IC50: 2 to 7 µM
[1]; [5]
  IC50: 6.29 µM
[2]; [8]
  IC50: 1.5 to 4 µM
[2]; [6]
  IC50: 2.23 µM
[3]
  CC50 at 72 h: 47.4 µM
other
  melting point: 61 to 62 °C

## O=C(/C=C/c1ccccc1)NC[C@H](OC(=O)/C=C/c1ccccc1)c1ccc2c(c1)OCO2 [Compound 34, (R)-1-(benzo[d][1,3]dioxol-5-yl)-2-cinnamamidoethyl cinnamate]
[1]; [5]
  IC50: > 5 µM
[3]
  CC50 at 72 h: > 200 µM
other
  melting point: 200 to 202 °C

## Cc1ccc([C@H](CNC(=O)/C=C/c2ccccc2)OC(=O)/C=C/c2ccccc2)cc1 [Compound 30, (R)-2-cinnamamido-1-(p-tolyl) ethyl cinnamate]
[1]; [5]
  IC50: 6.97 µM
[2]; [6]
  IC50: > 10 µM
[3]
  CC50 at 72 h: 49.4 µM
other
  melting point: 139 to 141 °C

## COc1cccc([C@@H](COC(=O)/C=C/c2ccccc2)OC(=O)/C=C/c2ccccc2)c1 [Compound 15, (S)-1-(3-methoxyphenyl)ethane-1,2-diyl (2E,2′E)-bis(3-phenylacrylate)]
[1]; [5]
  IC50: > 5 µM
[3]
  CC50 at 72 h: 61.9 µM
other
  melting point: 67 to 69 °C

## COc1ccc([C@@H](CNC(=O)c2ccccc2)OC(=O)c2ccccc2)cc1OC [Compound 39, (S)-2-benzamido-1-(3,4-dimethoxyphenyl) ethyl benzoate]
[1]; [5]
  IC50: 6.67 µM
[2]; [6]
  IC50: > 10 µM
[3]
  CC50 at 72 h: 8.16 µM
other
  melting point: 129 to 131 °C

## Cc1ccc([C@@H](COC(=O)/C=C/c2ccccc2)OC(=O)/C=C/c2ccccc2)cc1 [Compound 31, (S)-1-(p-tolyl) ethane-1,2-diyl (2E,2′E)-bis(3-phenylacrylate)]
[1]; [5]
  IC50: > 5 µM
[2]; [6]
  IC50: > 5 µM
[3]
  CC50 at 72 h: > 200 µM
other
  melting point: 103 to 105 °C

## O=C(/C=C/c1ccccc1)OC[C@@H](OC(=O)/C=C/c1ccccc1)c1ccc2c(c1)OCO2 [Compound 35, (S)-1-(benzo[d][1,3]dioxol-5-yl)ethane-1,2-diyl(2E,2′E)-bis(3-phenyl acrylate)]
[1]; [5]
  IC50: > 5 µM
[3]
  CC50 at 72 h: 31.8 µM
other
  melting point: 106 to 107 °C

## COc1cc([C@H](CNC(=O)/C=C/c2ccccc2)OC(=O)/C=C/c2ccccc2)cc(OC)c1OC [Compound 6, (R)-2-cinnamamido-1-(3,4,5-trimethoxyphenyl)ethyl cinnamate]
[1]; [5]
  IC50: > 5 µM
[3]
  CC50 at 72 h: 5.08 µM
other
  melting point: 126 to 127 °C

## O=C(/C=C/c1ccccc1)OC[C@@H](OC(=O)/C=C/c1ccccc1)c1ccccc1 [Compound 27, (S)-1-phenylethane-1,2-diyl (2E,2′E)-bis(3-phenylacrylate)]
[1]; [5]
  IC50: > 5 µM
[3]
  CC50 at 72 h: 39.1 µM
other
  melting point: 131 to 133 °C

## COc1ccc([C@H](CNC(=O)CCc2ccccc2)OC(=O)CCc2ccccc2)cc1OC [Compound 44, (R)-1-(3,4-dimethoxyphenyl)-2-(3-phenylpropanamido)ethyl 3-phenyl propanoate]
[1]; [5]
  IC50: 5.86 µM
[2]; [6]
  IC50: > 10 µM
[3]
  CC50 at 72 h: 73.2 µM
other
  melting point: 77 to 78 °C

## COc1cccc([C@H](CNC(=O)/C=C/c2ccccc2)OC(=O)/C=C/c2ccccc2)c1 [Compound 14, (R)-2-cinnamamido-1-(3-methoxyphenyl)ethyl cinnamate]
[1]; [5]
  IC50: > 5 µM
[3]
  CC50 at 72 h: 62.7 µM
other
  melting point: 138 to 140 °C

## COc1ccc([C@H](CNC(=O)c2ccccc2)OC(=O)c2ccccc2)cc1OC [Compound 40, (R)-2-benzamido-1-(3,4-dimethoxyphenyl) ethyl benzoate]
[1]; [5]
  IC50: 3.66 µM
[2]; [6]
  IC50: > 10 µM
[3]
  CC50 at 72 h: 104 µM
other
  melting point: 128 to 130 °C

## O=C(/C=C/c1ccccc1)OC[C@H](OC(=O)/C=C/c1ccccc1)c1ccccc1 [Compound 28, (R)-1-phenylethane-1,2-diyl (2E,2′E)-bis(3-phenylacrylate)]
[1]; [5]
  IC50: > 5 µM
[3]
  CC50 at 72 h: 30.3 µM
other
  melting point: 132 to 134 °C

## COc1cc([C@@H](CNC(=O)/C=C/c2ccccc2)OC(=O)/C=C/c2ccccc2)cc(OC)c1OC [Compound 5, (S)-2-cinnamamido-1-(3,4,5-trimethoxyphenyl)ethyl cinnamate]
[1]; [7]
  IC50: 2 to 7 µM
[1]; [5]
  IC50: 6.69 µM
[2]; [8]
  IC50: 1.5 to 4 µM
[2]; [6]
  IC50: 3.64 µM
[3]
  CC50 at 72 h: 66.7 µM
other
  melting point: 126 to 128 °C

## COc1ccc([C@@H](COC(=O)/C=C/c2ccccc2)NC(=O)/C=C/c2ccccc2)cc1OC [Compound 55, (S)-2-cinnamamido-2-(3,4-dimethoxyphenyl)ethyl cinnamate]
[1]; [5]
  IC50: > 10 µM
[2]; [6]
  IC50: > 10 µM
[3]
  CC50 at 72 h: 55.6 µM
other
  melting point: 117 to 120 °C

## CCCC(=O)O[C@H](CNC(=O)/C=C/c1ccccc1)c1ccc(OC)c(OC)c1 [Compound 52, (S)-2-cinnamamido-1-(3,4-dimethoxyphenyl)ethyl butyrate]
[1]; [5]
  IC50: > 10 µM
[2]; [6]
  IC50: > 10 µM
[4]
  CC50: 29.9 µM

## O=C(/C=C/c1ccccc1)NC[C@H](OC(=O)/C=C/c1ccccc1)c1ccccc1 [Compound 26, (R)-2-cinnamamido-1-phenylethyl cinnamate]
[1]; [5]
  IC50: 4.72 µM
[2]; [6]
  IC50: > 10 µM
[3]
  CC50 at 72 h: 63.9 µM
other
  melting point: 183 to 185 °C

## Cc1ccc([C@@H](CNC(=O)/C=C/c2ccccc2)OC(=O)/C=C/c2ccccc2)cc1 [Compound 29, (S)-2-cinnamamido-1-(p-tolyl) ethyl cinnamate]
[1]; [5]
  IC50: 6.77 µM
[2]; [6]
  IC50: > 10 µM
[3]
  CC50 at 72 h: 141 µM
other
  melting point: 139 to 140 °C

## COc1ccccc1[C@H](CNC(=O)/C=C/c1ccccc1)OC(=O)/C=C/c1ccccc1 [Compound 10, (R)-2-cinnamamido-1-(2-methoxyphenyl)ethyl cinnamate]
[1]; [5]
  IC50: > 5 µM
[3]
  CC50 at 72 h: 117 µM
other
  melting point: 112 to 114 °C

## COc1ccccc1[C@@H](CNC(=O)/C=C/c1ccccc1)OC(=O)/C=C/c1ccccc1 [Compound 9, (S)-2-cinnamamido-1-(2-methoxyphenyl)ethyl cinnamate]
[1]; [5]
  IC50: > 5 µM
[2]; [6]
  IC50: > 5 µM
[3]
  CC50 at 72 h: 77.8 µM
other
  melting point: 112 to 114 °C
